This passage reports Kd, IC50 and inhibition results from ChEMBL document CHEMBL4406912, “Discovery and Optimization of Dibenzodiazepinones as Allosteric Mutant-Selective EGFR Inhibitors” (ACS Med Chem Lett, 2019).

Activity calls are given as the source filed them. The rule behind the calls is not given here.

Experiment [1] concerns the target T1, STE20-like serine/threonine-protein kinase (Homo sapiens, UniProt Q9H2G2). Put plainly: Binding affinity to wild-type human partial length SLK (S14 to A307 residues) expressed in bacterial expression system assessed as residual binding level at 10 uM by Kinomescan method.
Experiment [2] addresses Epidermal growth factor receptor (Homo sapiens, UniProt P00533). Put plainly: Inhibition of human N-terminal GST-tagged EGFR (696 to 1022 residues) expressed in Sf21 insect cells by HTRF assay.
Experiment [3] has as its target Epidermal growth factor receptor (Homo sapiens, UniProt P00533, L858R). Put plainly: Inhibition of human N-terminal GST-tagged EGFR L858R mutant (696 to 1022 residues) expressed in Sf21 insect cells by HTRF assay.
The target of experiment [4] is Epidermal growth factor receptor (Homo sapiens, UniProt P00533, L858R/T790M). As to the kind of experiment: Inhibition of human N-terminal GST-tagged EGFR double T790M/L858R mutant (696 to 1022 residues) expressed in Sf21 insect cells by HTRF assay.
The target in experiment [5] is Epidermal growth factor receptor (Homo sapiens, UniProt P00533, C797S/L858R/T790M). As to the kind of experiment: Inhibition of human N-terminal GST-tagged EGFR triple T790M/L858R/C797S mutant (696 to 1022 residues) expressed in Sf21 insect cells by HTRF assay.
For experiment [6], the system named is Epidermal growth factor receptor (Homo sapiens), P00533 [L858R,T790M]. As to the kind of experiment: Allosteric inhibition of human N-terminal GST-tagged EGFR double T790M/L858R mutant (696 to 1022 residues) expressed in Sf21 insect cells assessed as change in inhibition rate in presence of 1 to 1000 uM ATP by HTRF assay.
Experiment [7] concerns the target Mast/stem cell growth factor receptor Kit (Homo sapiens, UniProt P10721, V559D/V654A). As to the kind of experiment: Inhibition of recombinant human His-tagged KIT V559D/V654A double mutant expressed in baculovirus expression system at 10 uM by kinomescan assay.
Experiment [8] deals with T1, STE20-like serine/threonine-protein kinase. As to the kind of experiment: Inhibition of tracer 236 binding to recombinant full length human GST-tagged SLK expressed in baculovirus expression system measured after 60 mins by Lanthascreen assay relative to control.

Sequence of Epidermal growth factor receptor (Homo sapiens, UniProt P00533) (P00533 whole entry, the tested form may be a part): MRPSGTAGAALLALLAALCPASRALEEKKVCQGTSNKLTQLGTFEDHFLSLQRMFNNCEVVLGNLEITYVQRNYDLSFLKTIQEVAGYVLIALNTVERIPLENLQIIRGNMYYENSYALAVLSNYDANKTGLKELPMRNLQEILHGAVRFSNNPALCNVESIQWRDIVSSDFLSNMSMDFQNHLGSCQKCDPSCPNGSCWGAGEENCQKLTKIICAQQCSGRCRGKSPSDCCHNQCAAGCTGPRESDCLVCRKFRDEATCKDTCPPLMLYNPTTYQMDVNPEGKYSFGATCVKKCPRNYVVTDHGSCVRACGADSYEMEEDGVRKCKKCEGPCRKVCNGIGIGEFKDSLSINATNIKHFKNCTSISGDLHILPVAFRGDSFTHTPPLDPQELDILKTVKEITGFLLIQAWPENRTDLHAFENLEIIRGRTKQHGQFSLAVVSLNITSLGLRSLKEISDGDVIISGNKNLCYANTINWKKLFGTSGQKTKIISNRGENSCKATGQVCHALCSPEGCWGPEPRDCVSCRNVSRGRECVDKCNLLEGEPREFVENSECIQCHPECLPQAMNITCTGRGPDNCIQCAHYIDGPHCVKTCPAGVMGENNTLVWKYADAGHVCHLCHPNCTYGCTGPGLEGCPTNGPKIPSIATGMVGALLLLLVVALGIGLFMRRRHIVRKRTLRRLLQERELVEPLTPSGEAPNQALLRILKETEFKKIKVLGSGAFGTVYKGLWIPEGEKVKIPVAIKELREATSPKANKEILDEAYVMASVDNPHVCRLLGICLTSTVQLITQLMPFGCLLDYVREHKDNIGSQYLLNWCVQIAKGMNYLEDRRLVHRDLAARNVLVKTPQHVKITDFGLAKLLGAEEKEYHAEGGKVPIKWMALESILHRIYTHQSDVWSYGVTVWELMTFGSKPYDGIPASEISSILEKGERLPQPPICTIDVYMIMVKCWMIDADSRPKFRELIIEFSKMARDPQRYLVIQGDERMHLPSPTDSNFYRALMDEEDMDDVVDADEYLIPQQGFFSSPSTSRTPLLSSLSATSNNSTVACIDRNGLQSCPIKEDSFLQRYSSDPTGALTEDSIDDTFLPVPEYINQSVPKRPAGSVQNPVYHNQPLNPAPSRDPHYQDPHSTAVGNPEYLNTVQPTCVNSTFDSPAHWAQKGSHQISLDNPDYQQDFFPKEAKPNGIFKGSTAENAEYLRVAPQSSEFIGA
Sequence of Epidermal growth factor receptor (Homo sapiens, UniProt P00533, L858R) (P00533 25-1210 L858R limits assumed): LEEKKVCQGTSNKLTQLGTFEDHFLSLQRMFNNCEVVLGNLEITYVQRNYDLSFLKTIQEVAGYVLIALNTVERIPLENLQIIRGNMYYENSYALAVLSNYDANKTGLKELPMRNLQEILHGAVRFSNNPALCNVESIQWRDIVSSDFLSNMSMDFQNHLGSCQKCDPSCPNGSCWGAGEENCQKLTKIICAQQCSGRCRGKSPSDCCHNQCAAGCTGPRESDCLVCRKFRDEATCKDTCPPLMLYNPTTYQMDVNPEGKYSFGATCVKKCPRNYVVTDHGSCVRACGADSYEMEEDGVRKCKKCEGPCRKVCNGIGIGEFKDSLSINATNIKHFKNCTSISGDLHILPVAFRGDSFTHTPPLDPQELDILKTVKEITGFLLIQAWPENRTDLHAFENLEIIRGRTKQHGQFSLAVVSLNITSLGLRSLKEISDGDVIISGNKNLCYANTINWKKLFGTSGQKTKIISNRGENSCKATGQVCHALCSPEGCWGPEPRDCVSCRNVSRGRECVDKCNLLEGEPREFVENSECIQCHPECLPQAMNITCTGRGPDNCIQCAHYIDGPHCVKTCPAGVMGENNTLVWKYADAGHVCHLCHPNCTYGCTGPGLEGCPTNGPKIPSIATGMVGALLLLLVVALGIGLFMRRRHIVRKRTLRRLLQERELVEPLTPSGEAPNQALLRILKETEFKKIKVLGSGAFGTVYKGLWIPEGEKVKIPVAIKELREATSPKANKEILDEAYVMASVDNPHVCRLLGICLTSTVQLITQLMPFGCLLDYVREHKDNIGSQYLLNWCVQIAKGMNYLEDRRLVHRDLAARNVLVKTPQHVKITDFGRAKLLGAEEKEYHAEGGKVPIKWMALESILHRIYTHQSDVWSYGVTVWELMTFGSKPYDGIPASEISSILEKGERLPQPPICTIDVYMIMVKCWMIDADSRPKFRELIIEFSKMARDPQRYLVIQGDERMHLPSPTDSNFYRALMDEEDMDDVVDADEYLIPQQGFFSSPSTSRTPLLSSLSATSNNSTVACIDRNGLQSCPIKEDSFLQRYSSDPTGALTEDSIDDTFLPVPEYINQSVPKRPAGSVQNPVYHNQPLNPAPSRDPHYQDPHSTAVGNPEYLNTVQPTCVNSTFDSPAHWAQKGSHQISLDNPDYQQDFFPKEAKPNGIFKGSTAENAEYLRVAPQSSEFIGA
T1 sequence (Q9H2G2 whole entry, the tested form may be a part): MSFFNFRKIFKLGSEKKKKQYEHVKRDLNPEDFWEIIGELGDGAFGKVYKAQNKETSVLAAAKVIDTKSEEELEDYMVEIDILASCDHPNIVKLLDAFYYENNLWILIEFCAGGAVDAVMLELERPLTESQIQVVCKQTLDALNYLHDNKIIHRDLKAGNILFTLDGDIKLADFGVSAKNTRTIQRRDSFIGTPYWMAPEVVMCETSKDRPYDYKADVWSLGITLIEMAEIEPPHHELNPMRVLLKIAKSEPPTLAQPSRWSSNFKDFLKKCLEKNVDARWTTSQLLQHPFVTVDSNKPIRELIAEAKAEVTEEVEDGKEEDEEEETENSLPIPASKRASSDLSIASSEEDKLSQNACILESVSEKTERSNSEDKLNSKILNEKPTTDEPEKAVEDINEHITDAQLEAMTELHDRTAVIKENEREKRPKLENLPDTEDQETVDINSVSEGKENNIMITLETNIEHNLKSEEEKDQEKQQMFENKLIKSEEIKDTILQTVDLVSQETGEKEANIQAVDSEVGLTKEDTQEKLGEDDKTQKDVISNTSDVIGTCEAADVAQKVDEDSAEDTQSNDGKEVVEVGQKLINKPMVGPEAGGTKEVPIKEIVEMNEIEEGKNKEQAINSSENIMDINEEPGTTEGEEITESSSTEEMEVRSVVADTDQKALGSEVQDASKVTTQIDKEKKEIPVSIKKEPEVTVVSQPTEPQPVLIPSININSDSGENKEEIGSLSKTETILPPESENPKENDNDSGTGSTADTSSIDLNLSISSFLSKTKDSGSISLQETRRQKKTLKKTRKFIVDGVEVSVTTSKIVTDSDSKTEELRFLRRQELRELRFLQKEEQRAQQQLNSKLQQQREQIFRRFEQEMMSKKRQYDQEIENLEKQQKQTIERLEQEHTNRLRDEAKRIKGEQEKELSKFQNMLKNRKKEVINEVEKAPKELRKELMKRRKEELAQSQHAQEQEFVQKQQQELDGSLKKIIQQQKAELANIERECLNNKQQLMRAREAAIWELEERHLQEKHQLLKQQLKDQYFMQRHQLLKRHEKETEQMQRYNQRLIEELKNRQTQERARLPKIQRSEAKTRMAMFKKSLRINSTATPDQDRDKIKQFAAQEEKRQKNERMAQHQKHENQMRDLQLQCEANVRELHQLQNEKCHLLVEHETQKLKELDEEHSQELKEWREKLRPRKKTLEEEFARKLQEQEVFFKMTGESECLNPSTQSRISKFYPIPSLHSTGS
Sequence of Epidermal growth factor receptor (Homo sapiens, UniProt P00533, C797S/L858R/T790M) (P00533 25-1210 T790M/C797S/L858R limits assumed): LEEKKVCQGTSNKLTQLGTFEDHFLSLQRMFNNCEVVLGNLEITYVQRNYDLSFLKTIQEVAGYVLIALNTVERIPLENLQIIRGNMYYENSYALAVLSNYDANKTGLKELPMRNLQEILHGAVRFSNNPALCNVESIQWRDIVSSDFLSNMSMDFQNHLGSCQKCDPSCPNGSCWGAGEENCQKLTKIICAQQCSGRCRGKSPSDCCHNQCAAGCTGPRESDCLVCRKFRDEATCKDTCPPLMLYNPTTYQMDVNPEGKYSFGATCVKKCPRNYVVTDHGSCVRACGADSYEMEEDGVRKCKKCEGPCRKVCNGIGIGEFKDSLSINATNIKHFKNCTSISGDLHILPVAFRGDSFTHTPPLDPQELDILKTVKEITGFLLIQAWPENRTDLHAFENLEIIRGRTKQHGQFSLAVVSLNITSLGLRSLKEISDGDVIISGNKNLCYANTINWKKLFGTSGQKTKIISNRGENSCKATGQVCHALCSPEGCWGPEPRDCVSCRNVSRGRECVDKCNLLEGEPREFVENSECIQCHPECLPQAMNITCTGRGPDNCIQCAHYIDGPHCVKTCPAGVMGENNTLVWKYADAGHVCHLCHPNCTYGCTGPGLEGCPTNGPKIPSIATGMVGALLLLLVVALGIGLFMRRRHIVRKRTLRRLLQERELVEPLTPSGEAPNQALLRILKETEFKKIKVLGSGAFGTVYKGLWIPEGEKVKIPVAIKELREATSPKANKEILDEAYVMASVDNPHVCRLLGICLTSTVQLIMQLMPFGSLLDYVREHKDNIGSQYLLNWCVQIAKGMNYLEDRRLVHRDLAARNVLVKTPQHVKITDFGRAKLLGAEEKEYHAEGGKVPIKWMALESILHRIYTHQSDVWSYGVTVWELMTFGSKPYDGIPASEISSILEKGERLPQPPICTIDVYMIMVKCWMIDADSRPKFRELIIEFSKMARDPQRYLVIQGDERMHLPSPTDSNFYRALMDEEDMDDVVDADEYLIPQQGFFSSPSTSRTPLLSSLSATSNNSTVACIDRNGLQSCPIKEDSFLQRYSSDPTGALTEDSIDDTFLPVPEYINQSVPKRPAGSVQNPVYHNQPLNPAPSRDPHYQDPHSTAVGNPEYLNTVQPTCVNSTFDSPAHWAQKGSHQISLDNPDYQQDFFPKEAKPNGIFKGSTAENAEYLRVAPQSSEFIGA

In the case of `CN1CCN(c2ccc(Oc3ccc4c(c3)C(=O)N(Cc3ccccc3)c3cc(F)ccc3N4)cc2)CC1`, the Kd in experiment [1] and in experiment [7] was over 10000 nM in each case. For the same compound, the IC50 is over 1000 nM in experiment [2]; 154 nM in experiment [3]; 11 nM in experiment [4]; 13 nM in experiment [5]; over 10000 nM in experiment [8]. For the same compound, the inhibition entry in experiment [6] was “inactive”.
For `O=C1c2cc(-c3ccc(N4CCNCC4)cc3)ccc2Nc2ccc(F)cc2N1Cc1ccccc1`, the IC50 in experiment [2] is over 1000 nM; in experiment [3] it was 150 nM; in experiment [4], 31 nM; in experiment [5] it was 19 nM.
